# Assay results as given in patent EP1184030A1, “Antibacterial composition comprising trimethylnorbornanylcyclohexanol derivatives” (Givaudan SA, priority 2000, dated 2002).
# Read-outs that look alike come from different tables or passages of the source.
# Tests used:
# [1] = test system: Ax 10 Corynebacterium jeikeium; assay: MIC microtiter plate test, axilla bacteria; assay type: cell-based; details: Ax10, growth inhibition by at least 80%, 24 h at 36° C
# Excerpt: (§1) The different bacterial strains had been isolated from the human axilla by current microbiological practice. They were taxonomically identified by cell morphology, gram-reaction and biochemical tests included in the Api coryne test kit (BioMerieux, France). Strain Staphylococcus epidermidis Ax25 was identified by fatty acid methyl ester analysis (FAME; German type strain collection DSMZ, Germany). The strains were maintained on Tryptic soy broth plates, this standard medium being amended with 5 g per Litre of Tween 80 and 1 g of Soybean lecithin. Plates were incubated at 36° C for a period 48 hours. The bacteria were then swabbed from the plates and suspended in 4 ml of Müller-Hinton broth amended with 100 mg of Tween80 per Litre (MH-Tween) and incubated again at 36° C for 16 hours. Following incubation the bacterial suspensions were diluted in MH-Tween to obtain a final cell density of 10^6 colony forming units per ml. For each fragrance material four microtiter plates were used in the example, each microtiter plate having 8 rows, A-H, and 12 columns, 1-12. To each column a diluted suspension of a different test organism was distributed, 100 µl per well. 1% stock solutions of the fragrance materials were then prepared in MH-Tween broth. The fragrance material was dispersed by ultrasonication into the aqueous medium to obtain a homogenous emulsion. 100 µl per well of this emulsion was then added to the first row of the microtiter plates already containing the target organisms. Serial dilution series were then prepared starting at row A and continuing until row G, each time removing 100 µl from a well and transferring it to the next well. In this way fragrance concentrations of 0.5%, 0.25%, 0.125%, 0.0625%, 0.03125%, 0.0156% and 0.0078% were tested for their antibacterial efficacy. The reference compound Triclosan was tested at 16 fold lower concentrations. The plates were covered with plastic films and incubated for 24 h at 36° C with shaking at 250 rpm. The turbidity developing in the microtiter plates was then examined after 24 h to determine microbial growth. The minimal concentration of fragrance inhibiting the growth of an organism by at least 80% was determined as the minimal inhibitory concentration (MIC).
# (§2) Ax 25 was identified as Staphylococcus epidermidis by FAME analysis. Identification with the Api Coryne test kit yielded the following species assignments for the remainder of the strains: Ax 26 Corynebacterium sp.; Ax 3 Corynebacterium bovis; Ax 7 Corynebacterium group G; Ax 10 Corynebacterium jeikeium; Ax 11 Corynebacterium jeikeium; Ax 12 Corynebacterium jeikeium; Ax 15 Corynebacterium jeikeium; Ax 20 Corynebacterium striatum/amycolatum; Ax 19 Corynebacterium jeikeium. The strains were isolated from the axilla of 8 human volunteers. Based on biochemical tests and colony morphology all strains were distinct from each other, even the several strains all belonging to Corynebacterium jeikeium.
# [2] = test system: Ax 11 Corynebacterium jeikeium; assay: MIC microtiter plate test, axilla bacteria; assay type: cell-based; details: Ax11, growth inhibition by at least 80%, 24 h at 36° C
# Excerpt: as §1, §2
# [3] = test system: Ax 12 Corynebacterium jeikeium; assay: MIC microtiter plate test, axilla bacteria; assay type: cell-based; details: Ax12, growth inhibition by at least 80%, 24 h at 36° C
# Excerpt: as §1, §2
# [4] = test system: Ax 15 Corynebacterium jeikeium; assay: MIC microtiter plate test, axilla bacteria; assay type: cell-based; details: for MIC: Corynebacterium jeikeium
# Excerpt: as §1, §2
# [5] = test system: Ax 20 Corynebacterium striatum/amycolatum; assay: MIC microtiter plate test, axilla bacteria; assay type: cell-based; details: Ax20, growth inhibition by at least 80%, 24 h at 36° C
# Excerpt: as §1, §2
# [6] = test system: Ax 26 Corynebacterium sp.; assay: MIC microtiter plate test, axilla bacteria; assay type: cell-based; details: for MIC: Corynebacterium
# Excerpt: as §1, §2
# [7] = test system: Ax 3 Corynebacterium bovis; assay: MIC microtiter plate test, axilla bacteria; assay type: cell-based; details: Ax3, growth inhibition by at least 80%, 24 h at 36° C
# Excerpt: as §1, §2
# [8] = test system: Ax 7 Corynebacterium group G; assay: MIC microtiter plate test, axilla bacteria; assay type: cell-based; details: for MIC: Corynebacterium
# Excerpt: as §1, §2
# [9] = test system: Staphylococcus epidermidis Ax25; assay: MIC microtiter plate test, axilla bacteria; assay type: cell-based; details: for MIC: Staphylococcus epidermidis, AX25
# Excerpt: as §1, §2
# Vapour pressure = assay type: physicochemical
# Excerpt: Odoriferous substances are by definition volatile compounds which evaporate from the skin and therefore loose their deodorising effect. Furthermore small water-soluble fragrance compounds can get dissolved in sweat and are thus rapidly diluted under conditions of high sweat secretion which further reduces the duration of the deodorising effect. Therefore a low water solubility indicated by a high LogP value and a low volatility indicated by low vapour pressure are desired for odoriferous substances which are used for their antibacterial activity.
# Corynebacteria = assay: MIC microtiter plate test, Corynebacteria; assay type: cell-based
# Excerpt: The different bacterial strains had been isolated from the human axilla by current microbiological practice. They were taxonomically identified by cell morphology, gram-reaction and biochemical tests included in the Api coryne test kit (BioMerieux, France). Strain Staphylococcus epidermidis Ax25 was identified by fatty acid methyl ester analysis (FAME; German type strain collection DSMZ, Germany). The strains were maintained on Tryptic soy broth plates, this standard medium being amended with 5 g per Litre of Tween 80 and 1 g of Soybean lecithin. Plates were incubated at 36° C for a period 48 hours. The bacteria were then swabbed from the plates and suspended in 4 ml of Müller-Hinton broth amended with 100 mg of Tween80 per Litre (MH-Tween) and incubated again at 36° C for 16 hours. Following incubation the bacterial suspensions were diluted in MH-Tween to obtain a final cell density of 10^6 colony forming units per ml. For each fragrance material four microtiter plates were used in the example, each microtiter plate having 8 rows, A-H, and 12 columns, 1-12. […]
# Since sandela is known to be a mixture of different reaction products, commercial sandela was subjected to a distillation process. […] The different fractions were evaluated for their antimicrobial activity (Table 6) with the method described in example 1. […]
# [10] = Corynebacterium jeikeium, read-out: Minimal inhibitory concentration (MIC)
# [11] = Table 8, Corynebact. Ax15, 24 hours
# [12] = Table 8, Corynebact. Ax7, 24 hours
# [13] = Table 8, S. epidermidis, 24 hours
# [14] = Table 7, Corynebact. Ax15, 24 hours
# [15] = Table 7, Corynebact. Ax7, 24 hours
# [16] = Table 7, S. epidermidis, 24 hours
# [17] = Ax15, growth inhibition by at least 80%, 24 h at 36° C
# [18] = Ax7, growth inhibition by at least 80%, 24 h at 36° C
# [19] = Ax 25, growth inhibition by at least 80%, 24 h at 36° C
smiles,measurement,setting,value
"CC(C)=CCCC(C)=CCCC(C)=CCO [Farnesol, 3,7,11-trimethyl-2,6,10-dodecatrien-1-ol]",MIC,[1]; [10],78 µg/mL
same,MIC,[2]; [10],195 µg/mL
same,MIC,[3]; [10],137 µg/mL
same,MIC,"[4]; Ax15, growth inhibition by at least 80%, 24 h at 36° C, read-out: Minimal inhibitory concentration (MIC)",156 µg/mL
same,MIC,"[4]; Table 7, Corynebact. Ax15, 24 hours, read-out: Bacteriostatic activity (concentration needed for at least 80% reduction in growth)",156 µg/mL
same,Bacteriostatic activity (concentration needed for at least 80% reduction in growth),[4]; [11],0.0156 percent (w/v)
same,MIC,"[5]; Corynebacterium striatum, read-out: Minimal inhibitory concentration (MIC)",137 µg/mL
same,MIC,"[6]; Ax26, growth inhibition by at least 80%, 24 h at 36° C, read-out: Minimal inhibitory concentration (MIC)",78 µg/mL
same,MIC,"[6]; Table 7, Corynebact. Ax26, 24 hours, read-out: Bacteriostatic activity (concentration needed for at least 80% reduction in growth)",78 µg/mL
same,Bacteriostatic activity (concentration needed for at least 80% reduction in growth),"[6]; Table 8, Corynebact. Ax26, 24 hours",0.0078 percent (w/v)
same,MIC,"[7]; Corynebacterium bovis, read-out: Minimal inhibitory concentration (MIC)",156 µg/mL
same,MIC,"[8]; Ax7, growth inhibition by at least 80%, 24 h at 36° C, read-out: Minimal inhibitory concentration (MIC)",137 µg/mL
same,MIC,"[8]; Table 7, Corynebact. Ax7, 24 hours, read-out: Bacteriostatic activity (concentration needed for at least 80% reduction in growth)",137 µg/mL
same,Bacteriostatic activity (concentration needed for at least 80% reduction in growth),[8]; [12],0.0137 percent (w/v)
same,MIC,"[9]; Ax 25, growth inhibition by at least 80%, 24 h at 36° C, read-out: Minimal inhibitory concentration (MIC)",156 µg/mL
same,MIC,"[9]; Table 7, S. epidermidis, 24 hours, read-out: Bacteriostatic activity (concentration needed for at least 80% reduction in growth)",156 µg/mL
same,Bacteriostatic activity (concentration needed for at least 80% reduction in growth),[9]; [13],0.0156 percent (w/v)
same,vapour pressure,Vapour pressure,1.35 µg/L
"CC1C2CC(CC2C2CCCCC2O)C1(C)C (stereo not shown) [2-(5,5,6-trimethylbicyclo[2.2.1]hept-2-yl)-cyclohexanol]",vapour pressure,Vapour pressure,about 2.2 µg/L
"COC1CC(C2CC3CC2C(C)C3(C)C)CCC1O (single isomer, unassigned; peak a) [Peak A]",Bacteriostatic activity (concentration needed for at least 80% reduction in growth),[4]; [14],0.0048 percent (w/v)
same,Bacteriostatic activity (concentration needed for at least 80% reduction in growth),[4]; [11],0.0048 percent (w/v)
same,Bacteriostatic activity (concentration needed for at least 80% reduction in growth),[8]; [15],0.0048 percent (w/v)
same,Bacteriostatic activity (concentration needed for at least 80% reduction in growth),[8]; [12],0.0048 percent (w/v)
same,Bacteriostatic activity (concentration needed for at least 80% reduction in growth),[9]; [16],0.0040 percent (w/v)
same,Bacteriostatic activity (concentration needed for at least 80% reduction in growth),[9]; [13],0.0040 percent (w/v)
CC1=CCC(/C=C\C(C)C(C)O)C1(C)C (stereo not shown) [Ebanol],Minimal inhibitory concentration (MIC),[1],0.2500 % weight/ volume
same,Minimal inhibitory concentration (MIC),[2],0.2500 % weight/ volume
same,Minimal inhibitory concentration (MIC),[3],0.2500 % weight/ volume
same,Minimal inhibitory concentration (MIC),[4]; [17],0.2500 % weight/ volume
same,Minimal inhibitory concentration (MIC),[5],0.1250 % weight/ volume
same,Minimal inhibitory concentration (MIC),[7],0.1250 % weight/ volume
same,Minimal inhibitory concentration (MIC),[8]; [18],0.1250 % weight/ volume
same,Minimal inhibitory concentration (MIC),[9]; [19],0.1250 % weight/ volume
"COC1CC(C2CC3CC2C(C)C3(C)C)CCC1O (stereo not shown) [2-methoxy-4-(5,5,6-trimethylbicyclo[2.2.1]hept-2-yl)cyclohexan-1-ol]",activity against Corynebacteria,Corynebacteria,highest activity
"CC1C2CC(CC2C2CCC(O)CC2)C1(C)C (stereo not shown) [4-(5,5,6-trimethylbicyclo[2.2.1]hept-2-yl)-cyclohexanol]",vapour pressure,Vapour pressure,about 2.2 µg/L
C=CCc1ccc(O)c(OC)c1 [Eugenol],vapour pressure,Vapour pressure,109 µg/L
CCC(=CCC1CC=C(C)C1(C)C)CO (stereo not shown) [Radjanol],Minimal inhibitory concentration (MIC),[4]; [17],0.125. % weight/ volume
same,Minimal inhibitory concentration (MIC),[8]; [18],0.0625 % weight/ volume
same,Minimal inhibitory concentration (MIC),[9]; [19],0.1250 % weight/ volume
"CC1C2CC(CC2C2CCCC(O)C2)C1(C)C (stereo not shown) [3-(5,5,6-trimethylbicyclo[2.2.1]hept-2-yl)-cyclohexanol]",vapour pressure,Vapour pressure,about 2.2 µg/L
CC1=CCC(CCC(C)C(C)O)C1(C)C (stereo not shown) [Sandalore],Minimal inhibitory concentration (MIC),[1],0.1250 % weight/ volume
same,Minimal inhibitory concentration (MIC),[2],0.1250 % weight/ volume
same,Minimal inhibitory concentration (MIC),[3],0.1250 % weight/ volume
same,Minimal inhibitory concentration (MIC),[4]; [17],0.2500 % weight/ volume
same,Minimal inhibitory concentration (MIC),[5],0.1250 % weight/ volume
same,Minimal inhibitory concentration (MIC),[7],0.1250 % weight/ volume
same,Minimal inhibitory concentration (MIC),[8]; [18],0.1250 % weight/ volume
same,Minimal inhibitory concentration (MIC),[9]; [19],0.1250 % weight/ volume
"COC1CCC(C2CC3CC2C(C)C3(C)C)CC1O (stereo not shown) [2-methoxy-5-(5,5,6-trimethyl-bicyclo[2.2.1]hept-2-yl)cyclohexan-1-ol]",activity against Corynebacteria,Corynebacteria,highest activity
"COC1CC(C2CC3CC2C(C)C3(C)C)CCC1O (single isomer, unassigned; peak b) [Peak B]",Bacteriostatic activity (concentration needed for at least 80% reduction in growth),[4]; [14],0.0028 percent (w/v)
same,Bacteriostatic activity (concentration needed for at least 80% reduction in growth),[4]; [11],0.0028 percent (w/v)
same,Bacteriostatic activity (concentration needed for at least 80% reduction in growth),[8]; [15],0.0028 percent (w/v)
same,Bacteriostatic activity (concentration needed for at least 80% reduction in growth),[8]; [12],0.0028 percent (w/v)
same,Bacteriostatic activity (concentration needed for at least 80% reduction in growth),[9]; [16],0.0023 percent (w/v)
same,Bacteriostatic activity (concentration needed for at least 80% reduction in growth),[9]; [13],0.0023 percent (w/v)
